Test results published in ChEMBL document CHEMBL4808169, “Discovery of Potent and Fast-Acting Antimalarial Bis-1,2,4-triazines” (J Med Chem, 2021).
pEC50, pIC50: −log10 of the molar value. Active and inactive are the calls of the source. The calls are words filed in the database; no cut-off is given here.

What was measured:
[1] = Intrinsic clearance in human liver microsomes assessed per mg of protein in presence of NADPH by UPLC-MS analysis; format: ADME, Microsome; conditions: read-out: CLH
[2] = Half life in mouse liver microsomes in presence of NADPH by UPLC-MS analysis; format: ADME, Microsome
[3] = Intrinsic clearance in human hepatocytes assessed per million cells by UPLC-MS analysis; format: ADME, cell-based, Hepatocyte; conditions: read-out: CLH
Cytochrome P450 2C19 = Cytochrome P450 2C19 (Homo sapiens, UniProt P33261); assay: Inhibition of CYP2C19 in human liver microsomes assessed as reduction in […] activity by . high-pressure liquid chromatography-tandem mass spectrometry; format: ADME
Chain of Cytochrome P450 2C19 (P33261 whole entry): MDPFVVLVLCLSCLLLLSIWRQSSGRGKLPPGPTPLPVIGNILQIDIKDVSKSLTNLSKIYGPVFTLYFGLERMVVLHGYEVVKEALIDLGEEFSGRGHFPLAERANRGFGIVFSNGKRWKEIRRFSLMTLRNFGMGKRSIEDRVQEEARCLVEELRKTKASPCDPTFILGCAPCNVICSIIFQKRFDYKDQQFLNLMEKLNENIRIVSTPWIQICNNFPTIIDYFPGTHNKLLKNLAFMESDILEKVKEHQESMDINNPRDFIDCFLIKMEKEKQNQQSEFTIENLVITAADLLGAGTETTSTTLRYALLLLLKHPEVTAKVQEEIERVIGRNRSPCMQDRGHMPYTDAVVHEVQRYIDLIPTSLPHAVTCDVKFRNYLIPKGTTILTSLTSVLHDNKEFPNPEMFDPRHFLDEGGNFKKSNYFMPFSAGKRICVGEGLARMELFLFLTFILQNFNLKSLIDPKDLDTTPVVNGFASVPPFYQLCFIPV

Cytochrome P450 3A4 = Cytochrome P450 3A4 (Homo sapiens, UniProt P08684); assay: Inhibition of CYP3A4 in human liver microsomes assessed as reduction in testosterone 6beta-hydroxylation activity by high-pressure liquid chromatography-tandem mass spectrometry; format: ADME
Chain of Cytochrome P450 3A4 (P08684 whole entry): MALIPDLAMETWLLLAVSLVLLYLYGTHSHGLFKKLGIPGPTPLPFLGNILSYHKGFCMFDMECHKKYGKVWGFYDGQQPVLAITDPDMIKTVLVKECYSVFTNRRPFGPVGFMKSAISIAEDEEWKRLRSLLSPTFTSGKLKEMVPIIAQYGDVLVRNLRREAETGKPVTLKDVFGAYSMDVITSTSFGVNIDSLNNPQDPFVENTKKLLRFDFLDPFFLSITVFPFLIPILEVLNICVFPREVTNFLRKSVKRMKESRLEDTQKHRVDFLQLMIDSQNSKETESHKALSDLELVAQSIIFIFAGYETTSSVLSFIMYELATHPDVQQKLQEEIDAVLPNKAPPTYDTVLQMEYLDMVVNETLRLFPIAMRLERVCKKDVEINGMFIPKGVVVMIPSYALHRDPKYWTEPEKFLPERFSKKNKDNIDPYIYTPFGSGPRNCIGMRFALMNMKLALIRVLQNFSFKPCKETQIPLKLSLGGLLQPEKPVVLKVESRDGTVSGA

[4] = Drug metabolism in human liver microsomes assessed as oxygenated metabolite M+16(2) formation by LC-MS/MS(CID) analysis; format: ADME, Microsome
[5] = Drug metabolism in human liver microsomes assessed as formation of cleavage product M-69 by LC-MS/MS(CID) analysis; format: ADME, Microsome
[6] = Drug metabolism in mouse liver microsomes assessed as formation of cleavage product M-69 by LC-MS/MS(CID) analysis; format: ADME, Microsome
[7] = Drug metabolism in human liver microsomes assessed as formation of cleavage product M-69 in presence of NADPH by LC-MS/MS(CID) analysis; format: ADME, Microsome
[8] = Drug metabolism in mouse liver microsomes assessed as formation of cleavage product M-69 in presence of NADPH by LC-MS/MS(CID) analysis; format: ADME, Microsome
Plasmodium falciparum = assay: Bactericidal activity against Plasmodium falciparum 3D7A at 10 times IC50; format: functional, organism-based
Plasmodium [9] = assay: Antimalarial activity against Plasmodium assessed as transmission blocking potential by measuring reduction in male gamete formation by dual gamete formation assay; format: functional, organism-based
Plasmodium [10] = assay: Antimalarial activity against Plasmodium assessed as transmission blocking potential by measuring reduction in female gamete formation by dual gamete formation assay; format: functional, organism-based
HEK293 = assay: Cytotoxicity against HEK293 cells incubated for 24 hrs by MTT assay; format: cell-based; conditions: Homo sapiens, HEK293, 24 h
[11] = Cmax in Swiss mouse plasma at 2.8 mg/kg, po measured up to 24 hrs by LC-MS analysis; format: ADME, organism-based; design: route oral, dose 2.8 mg/kg, time <=24
[12] = Cmax in Swiss mouse plasma at 27 mg/kg, po measured up to 24 hrs by LC-MS analysis; format: ADME, organism-based; design: route oral, dose 27 mg/kg, time <=24
[13] = AUC (0 to infinity) in Swiss mouse plasma at 2.7 mg/kg, iv measured up to 24 hrs; format: ADME, organism-based; design: route intravenous, dose 2.7 mg/kg, time <=24
[14] = Volume of distribution at steady state in Swiss mouse at 2.7 mg/kg, iv measured up to 24 hrs by LC-MS analysis; format: ADME, organism-based; conditions: in vivo, read-out: Vdss
[15] = Oral bioavailability in Swiss mouse at 2.8 mg/kg measured up to 24 hrs; format: ADME, organism-based; conditions: in vivo
[16] = Apparent half life in Sprague-Dawley rat at 3 mg/kg administered as iv infusion for 10 mins measured up to 24 hrs by LC-MS analysis; format: ADME, organism-based; conditions: in vivo
[17] = Apparent blood clearance in Sprague-Dawley rat at 3 mg/kg, iv measured up to 24 hrs by LC-MS analysis; format: ADME, organism-based; conditions: read-out: CL(app)
[18] = Drug metabolism in Sprague-Dawley rat urine assessed as oxygenated metabolite M+16(2) formation at 3 mg/kg, iv by high-resolution mass spectrometry; format: ADME, organism-based; conditions: in vivo
[19] = Drug metabolism in Sprague-Dawley rat urine assessed as oxygenated metabolite N-methyl-2-(3'-propoxy-5,5'-bi(1,2,4-triazin)-3-yloxy)ethanamine oxide formation at 10 mg/kg, po by high-resolution mass spectrometry; format: ADME, organism-based; conditions: in vivo
[20] = Drug metabolism in Sprague-Dawley rat urine assessed as N-methyl-2-(3'-propoxy-5,5'-bi(1,2,4-triazin)-3-yloxy)ethanamine formation at 10 mg/kg, po by high-resolution mass spectrometry; format: ADME, organism-based; conditions: in vivo
[21] = Drug metabolism in Sprague-Dawley rat urine assessed as M-32 metabolite formation at 3 mg/kg, iv by high-resolution mass spectrometry; format: ADME, organism-based; conditions: in vivo
[22] = Drug metabolism in Sprague-Dawley rat feces assessed as oxygenated metabolite N-methyl-2-(3'-propoxy-5,5'-bi(1,2,4-triazin)-3-yloxy)ethanamine oxide formation at 10 mg/kg, po by high-resolution mass spectrometry; format: ADME, organism-based; conditions: in vivo
[23] = Drug metabolism in Sprague-Dawley rat feces assessed as oxygenated metabolite N-methyl-2-(3'-propoxy-5,5'-bi(1,2,4-triazin)-3-yloxy)ethanamine oxide formation at 3 mg/kg, iv by high-resolution mass spectrometry; format: ADME, organism-based; conditions: in vivo
[24] = Drug metabolism in Sprague-Dawley rat plasma assessed as M-69 metabolite formation at 10 mg/kg, po by high-resolution mass spectrometry; format: ADME, organism-based; conditions: in vivo
[25] = Drug recovery in bile cannulated Sprague-Dawley rat bile at 3 mg/kg, iv measured up to 4 hrs by LC-MS analysis; format: ADME, organism-based; conditions: read-out: Drug recovery
[26] = Toxicity in Swiss mouse assessed as induction of poor posture at 32 mg/kg/day administered for 4 days; format: organism-based; conditions: in vivo, 96 h, time 4 day
[27] = Drug concentration in blood of NOD-SCID 1L2Rgamma mouse infected with Plasmodium falciparum 3D70087/N9 at 50 mg/kg, po measured after 6 hrs by LC-MS/MS analysis; format: ADME, organism-based; conditions: read-out: Drug uptake
[28] = Drug metabolism in rat liver microsomes assessed as oxygenated metabolite M+16(1) formation by LC-MS/MS(CID) analysis; format: ADME, Microsome
[29] = Drug metabolism in rat liver microsomes assessed as oxygenated metabolite N-methyl-2-(3'-propoxy-5,5'-bi(1,2,4-triazin)-3-yloxy)ethanamine oxide formation by LC-MS/MS(CID) analysis; format: ADME, Microsome
[30] = Drug metabolism in mouse hepatocytes assessed as oxygenated metabolite M+16(1) formation by LC-MS/MS(CID) analysis; format: ADME, cell-based, Hepatocyte
[31] = Drug metabolism in rat hepatocytes assessed as oxygenated metabolite M+16(1) formation by LC-MS/MS(CID) analysis; format: ADME, cell-based, Hepatocyte
[32] = Drug metabolism in human hepatocytes assessed as oxygenated metabolite M+16(2) formation by LC-MS/MS(CID) analysis; format: ADME, cell-based, Hepatocyte
[33] = Drug metabolism in rat hepatocytes assessed as oxygenated metabolite M+16(2) formation by LC-MS/MS(CID) analysis; format: ADME, cell-based, Hepatocyte
[34] = Drug metabolism in human hepatocytes assessed as oxygenated metabolite N-methyl-2-(3'-propoxy-5,5'-bi(1,2,4-triazin)-3-yloxy)ethanamine oxide formation by LC-MS/MS(CID) analysis; format: ADME, cell-based, Hepatocyte
[35] = Drug metabolism in rat hepatocytes assessed as N-methyl-2-(3'-propoxy-5,5'-bi(1,2,4-triazin)-3-yloxy)ethanamine formation by LC-MS/MS(CID) analysis; format: ADME, cell-based, Hepatocyte
[36] = Drug metabolism in rat hepatocytes assessed as 3'-propoxy-5,5'-bi(1,2,4-triazin)-3-ol formation by LC-MS/MS(CID) analysis; format: ADME, cell-based, Hepatocyte
[37] = AUC (0 to infinity) in Swiss mouse plasma at 2.8 mg/kg, po measured up to 24 hrs by LC-MS analysis

CCCOc1nncc(-c2cnnc(OCCN(C)C)n2)n1
microsomal CLint [1]: 8 µL/min/mg
half-life [2]: 42 min
hepatocyte CLint [3]: 3.6 µL/min/1e6 cells
pIC50 (Cytochrome P450 2C19): < 4.70
pIC50 (Cytochrome P450 3A4): < 4.70
Drug metabolism [4]: Metabolite_Detected
Drug metabolism [5]: Metabolite_Detected
Drug metabolism [6]: Metabolite_Detected
Drug metabolism [7]: Metabolite_Detected
Drug metabolism [8]: Metabolite_Detected
Activity (Plasmodium falciparum): Active
pEC50 (Plasmodium [9]): 5.92
pEC50 (Plasmodium [10]): 5.54
pEC50 (HEK293): 4.44
Cmax [11]: 16.8 nM
Cmax [12]: 82 nM
AUC(0-inf) [13]: 0.36 µM·h
Vd [14]: 3.4 L/kg
bioavailability [15]: 10%
half-life [16]: 23.4 min
clearance [17]: 205 mL/min/kg
Drug metabolism [18]: Metabolite_Detected
Drug metabolism [19]: Metabolite_Detected
Drug metabolism [20]: Metabolite_Detected
Drug metabolism [21]: Metabolite_Detected
Drug metabolism [22]: Metabolite_Detected
Drug metabolism [23]: Metabolite_Detected
Drug metabolism [24]: Metabolite_Detected
dose excreted at 4 h [25]: 0.1%
Activity [26]: Non-Toxic
concentration at 6 h [27]: 150 ng/mL
Drug metabolism [28]: Metabolite_Detected
Drug metabolism [29]: Metabolite_Detected
Drug metabolism [30]: Metabolite_Detected
Drug metabolism [31]: Metabolite_Detected
Drug metabolism [32]: Metabolite_Detected
Drug metabolism [33]: Metabolite_Detected
Drug metabolism [34]: Metabolite_Detected
Drug metabolism [35]: Metabolite_Detected
Drug metabolism [36]: Metabolite_Detected
AUC(0-inf) [37]: 0.038 µM·h
